Two compounds from US10246455B2, “Histone deacetylase inhibitors” (Taipei Medical University, priority 2014, dated 2019) can be followed below.

Series [1] has as its system PC3 prostate cancer cells. The series is described as follows: Three dimensional cell growth inhibitory assay (cellular spheres, MTT, microscopy): PC3. The series is classed as cell-based, human. The note with it: for IC50: Homo sapiens. As for the experimental part:
(§1) For the three dimensional assay, cells in the logarithmic phase were cultured in 50% Matrigel-containing complete medium in 96-well plates at 37° C. with 5% CO2 for five days incubation, and treated with appropriate concentrations of test compounds for three generative times. Images of spheroids were taken under a microscope, and spheroid cell survival was determined by MTT assays.
(§2) The cells (in the 2D culture) and the cellular spheres (in the 3D culture) were treated with test compounds for 72 hours, and then subjected to the MTT colorimetric assay. Each value represents the mean of three independent experiments. Cellular spheres formed in semi-solid and drug effect on cellular spheres were examined using phase-contrast light microscopy.
More specifically, cellular spheres formed in semi-solid and drug effect on cellular spheres were examined using phase-contrast light microscopy. 3D structures of cells were analyzed using 4× magnification, 10× magnification, and 20× magnification.

Series [2] concerns LNCaP104-S prostate cancer cells. Nature of the series: Two dimensional cell growth inhibitory assay (MTT): LNCaP104-S. The note with it: Homo sapiens, 72 h, read-out: MTT IC50 ± SD.
Experimental: (§3) For the two dimensional assay, cancel cells in the logarithmic phase were cultured in complete medium in 96-well plates at 37° C. with 5% CO2 for overnight incubation, and treated with various concentrations of test compounds for three generative times. Cells were then incubated with a serum free medium containing 3-(4,5-dimethylthiazol-2-yl)-2,5-diphenyltetrazolium bromide (MTT) at a final concentration of 0.5 mg/mM for four hours. MTT was converted to formazan by metabolically viable cells. Formazan was then solublized in 50% DMF solution containing 20% SDS at 37° C. overnight. Absorbance was measured at 570 nm using a spectramax M5 microplate reader (Molecular Devices, UK).
The test system of series [3] is LNCaP104-R1 prostate cancer cells. Nature of the series: Two dimensional cell growth inhibitory assay (MTT): LNCaP104-R1. The note with it: Homo sapiens, 72 h, read-out: MTT IC50 ± SD.
Experimental: as §3
The subject of series [4] is HONE-1 (nasopharyngeal carcinoma). The series is described as follows: IC50 in human cancer cell lines (inhibiting HDAC): HONE-1.
Series [5] concerns androgen-independent PC3 prostate cancer cells. The series is described as follows: Cell cycle analysis. The format is cell-based, human. The note with it: for cell cycle arrest and apoptosis: androgen-independent PC3 prostate cancer cells. On the procedure:
More specifically, cells in the logarithmic phase were initially seeded at a density of 1×10^6 in 100 mm^2 dishes. After treatment with various concentrations of test compounds for the indicated times, cells were trypsinized, washed with PBS, and fixed in 70% ethanol. The fixed cells were then treated with 50 μg/mL RNase and stained with 50 μg/mL propidium iodide at room temperature for 20 minutes. The DNA content was determined by BD FACS Calibur flow cytometry system (BD Biosciences). For each analysis, 10,000 cells were counted, and the percentage of cells in each phase was calculated using ModFit LT software (Verity Software House, Inc.).

In series [6] the test system is LNCaP104-R2 prostate cancer cells. Nature of the series: Two dimensional cell growth inhibitory assay (MTT): LNCaP104-R2. The note with it: Homo sapiens, 72 h, read-out: MTT IC50 ± SD.
Experimental: as §3
The subject of another series is PC3 (prostate carcinoma). Nature of the series: IC50 in human cancer cell lines (inhibiting HDAC): PC3.
Series [7] has as its system Du145 prostate cancer cells. Nature of the series: Two dimensional cell growth inhibitory assay (MTT): Du145. The note with it: Homo sapiens, DU-145, 72 h, read-out: MTT IC50 ± SD.
Experimental: as §3
For series [8], the system named is LNCaP104-R1 prostate cancer cells. Nature of the series: Three dimensional cell growth inhibitory assay (cellular spheres, MTT): LNCaP104-R1. The series is classed as cell-based. To be noted: Homo sapiens; 3D cellular sphere culture, LNCaP104-R1 (androgen-independent), 72 hours; read-out: MTT IC50 ± SD. As for the experimental part: as §1, §2
In series [9] the test system is PC3 prostate cancer cells. The series is described as follows: Two dimensional cell growth inhibitory assay (MTT): PC3. The note with it: Homo sapiens.
Experimental: as §3
Series [10] concerns H460 (non-small-cell lung carcinoma). The series is described as follows: IC50 in human cancer cell lines (inhibiting HDAC): H460.
In series [11] the test system is LNCaP104-S prostate cancer cells. The series is described as follows: Three dimensional cell growth inhibitory assay (cellular spheres, MTT): LNCaP104-S. The format is cell-based. To be noted: Homo sapiens; 3D cellular sphere culture, LNCaP104-S (androgen-dependent), 72 hours; read-out: MTT IC50 ± SD. As for the experimental part:
as §1, §2

For series [12], the system named is histone and α-tubulin acetylation in PC3 cells. Nature of the series: Western blot: acetylation in PC3 cells. The format is cell-based, human. The note with it: concentration-dependent. On the procedure: More specifically, cells in the logarithmic phase were initially seeded at a density of 1×10^6 in 100 mm^2 dishes. […] Briefly, cells were lysed with the cell lysis reagent CelLytic™ M (Sigma-Aldrich) containing 1 mM DTT, 1 mM PMSF and protease inhibitors for whole-cell lysate preparation. Equal amounts of lysate (on a protein basis) were then differentiated using the SDS-PAGE, blotted on PVDF membranes, conjugated with various specific primary antibodies, and then probed with appropriate secondary antibodies. The immunoreactive bands were detected using the ECL method and visualized on Kodak Bio-MAX MR film.
Proteins from cells were extracted and subjected to the western blotting analysis. β-Actin was used as an internal control. The deacetylase enzyme assay was based on a homogeneous fluorescence release assay. […] After fluorophore from the deacetylated substrates, fluorescent signal was detected.
In general terms: In western blotting, separated proteins are transferred to a membrane and probed.

Series [13] deals with KB cell line (oral carcinoma). The series is described as follows: IC50 in human cancer cell lines (inhibiting HDAC): KB.
The subject of series [14] is human PC3 prostate cancer cells xenograft. The series is described as follows: In vivo antitumor activity assay, PC3 xenograft. From the text:
The antitumor effect of the two test compounds were examined in mice xenografted with human PC3 prostate cancer cells or HCT116 colorectal cells.
Five million PC3 cells were subcutaneously inoculated into specific pathogen-free male athymic mice (strain BALB/cAnN.Cg-Foxn1nu/CrlNarl) from the National Laboratory Animal Center, Taiwan. Mice were subsequently fed under specific pathogen-free conditions and provided with sterile water and food. When the tumor volume reached 150 to 200 mm^3, mice were assigned to groups randomly and treated with vehicle control or Compound 7 or 5b at 25/50/100 mg/kg. The compound was administered once a day, 5 days/week for 2 weeks (n=6) by oral administration. Tumor volume and body weight change were measured twice a week. At the end of the experiments (day 25 after first dosing), animals were euthanized in a CO2-containing chamber, and the tumors were collected and fixed in formaldehyde. The terminal deoxynucleotidyl transferase-mediated dUTP nick end labeling assay (TUNEL) was conducted for apoptosis detection. Tumor tissue sections were analyzed using a FITC In Situ Cell death detection kit (Roche) and fluorescence microscopy. Tissue treated with DNase was used as the positive control. Green fluorescence labeled nucleus indicates the induction of DNA fragmentation.

The subject of series [15] is HT-29 (colorectal carcinoma). The series is described as follows: IC50 in human cancer cell lines (inhibiting HDAC): HT-29.

Like-named read-outs stand apart in the source and are kept apart here.

Turning to `COc1ccc(S(=O)(=O)N2CCc3cc(/C=C/C(=O)NO)cnc32)cc1` [Compound 5b, (E)-N-hydroxy-3-(1-(4-methoxyphenylsulfonyl)-2,3-dihydro-1H-pyrrolo[2,3-b]pyridin-5-yl)acrylamide], the IC50 in series [1] (3D cellular sphere culture, PC3, 72 hours, read-out: MTT IC50 ± SD) was determined as 410 ± 60 nM; in series [1] (Table 6, cell line not given, read-out: IC50 value 3D Culture), 410 ± 60 nM; in series [2], 150 ± 30 nM; in series [3] it was 100 ± 40 nM; in series [4] (HONE1, read-out: IC50 ± SD against human cancer cell lines), 447 ± 45.2 nM; in [6] it was 180 ± 70 nM. Moreover, the IC50 with PC3 (prostate carcinoma) (read-out: IC50 ± SD against human cancer cell lines) was 170 ± 40 nM; in series [7] it was 90 ± 30 nM; in series [8], 150 to 625 nM; in series [9] (72 h, read-out: MTT IC50 ± SD) it was 170 ± 40 nM; in series [9] (read-out: IC50 value 2D Culture) it was 170 ± 40 nM; in series [10] (NCI-H460, read-out: IC50 ± SD against human cancer cell lines), 112 ± 9.5 nM. Further, the IC50 is 230 ± 30 nM in series [11]; 86.6 ± 17.1 nM in series [13] (Homo sapiens, read-out: IC50 ± SD against human cancer cell lines, KB, oral carcinoma); 85.4 ± 9.8 nM in series [15] (HT-29, read-out: IC50 ± SD against human cancer cell lines). For the same compound, in series [5], the p21 up-regulation entry is recorded as “induced p21 up-regulation”. In [5], the “cell cycle arrest and apoptosis” value is “induced cell cycle arrest and apoptosis”. For the same compound, in series [12], the “histone and α-tubulin acetylation” value is “induced histone and α-tubulin acetylation”. For the same compound, the “inhibition of human PC3 xenograft growth” value was “about 70%” in series [14] (50 mg/kg oral, day 29 after the first dosing) and “completely inhibited” in [14] (100 mg/kg oral). In addition, in series [14] (PC3 xenograft, 100 mg/kg oral), the tumor regression entry is on record as “achieved tumor regression from day 8 to day 29”.

Turning to `O=C(/C=C/c1cccc(S(=O)(=O)n2ccc3cccnc32)c1)NO` [Compound 7, (E)-3-(3-(1H-Pyrrolo[2,3-b]pyridin-1-ylsulfonyl)phenyl)-N-hydroxyacrylamide], the “effect on spheroid structure of PC3 tumors” value in series [1] (3D culture, phase-contrast light microscopy) is given as “disrupted the spheroid structure of PC3 tumors in a concentration-dependent manner”. Also, the IC50 in series [1] (read-out: 3D Culture) was found to be 6380 ± 160 nM; in series [2], 1980 ± 100 nM; in [3], 1150 ± 30 nM; in series [4] (HONE1, read-out: IC50, inhibiting HDAC in human cancer cell lines) it was 1200 ± 310 nM; in series [6] it was 2090 ± 110 nM; with PC3 (prostate carcinoma) (read-out: IC50, inhibiting HDAC in human cancer cell lines), 1630 ± 410 nM. Further, the IC50 in series [7] came to 1220 ± 50 nM; in series [8], 2450 ± 150 nM; in series [9] (read-out: 2D Culture) it was 2990 ± 170 nM; in series [10] (NCI-H460, read-out: IC50, inhibiting HDAC in human cancer cell lines), 570 ± 10 nM; in series [11], 3210 ± 150 nM; in series [13] (read-out: IC50, inhibiting HDAC in human cancer cell lines, oral carcinoma), 760 ± 230 nM. For the same compound, in series [15] (HT-29, read-out: IC50, inhibiting HDAC in human cancer cell lines), the IC50 was found to be 1240 ± 400 nM. In [1] (human prostate carcinoma cells, 2D and 3D culture), the “cytotoxic / anti-proliferative activity in 3D versus 2D culture” value was “potent in both a 3D spheroid culture and a 2D culture”. In addition, the “cell cycle arrest and apoptosis” value in [5] is “induced cell cycle arrest and apoptosis”. Besides, in [12], the “histone and α-tubulin acetylation” value is “induced histone and α-tubulin acetylation”. Moreover, the “inhibition of human PC3 xenograft growth” value in series [14] (25 mg/kg oral, day 25 after the first dosing) is listed as “about 50%”; in series [14] (50 mg/kg oral, day 25 after the first dosing), “about 50%”. Moreover, the body weight change entry in series [14] (PC3 xenograft mice, 25 and 50 mg/kg oral) is “without causing much body weight change”.
